ChEMBL document CHEMBL6177972 (J Nat Prod, 2025)

Legend:
Assay type in all cases: functional, cell-based
[1] = Anticancer activity against human MM649 cells assessed as cell growth inhibition incubated for 4 days by MTT assay; settings: MM649, 96 h
HeLa = experiment: Anticancer activity against human HeLa cells assessed as cell growth inhibition incubated for 4 days by MTT assay; settings: 96 h
K562 = experiment: Anticancer activity against human K562 cells assessed as cell growth inhibition incubated for 4 days by MTT assay; settings: K562, 96 h

IC50 (HeLa) [µM]	IC50 (K562) [µM]	SMILES	IC50 [1] [µM]
2.3	10.5	CCCCCCCCCCCCC[C@H]1C[C@H](OC(C)=O)C[C@@]2(C[C@@H]3OC(=O)C=C[C@@H]3O2)O1	1.9
27.1	39.6	CC(=O)O[C@H]1C[C@H](C[C@@H](O)CCCCCCCCc2ccc3c(c2)OCO3)O[C@@]2(C1)C[C@@H]1OC(=O)C=C[C@@H]1O2	24.5
13.6	25.1	O=C1C=C[C@@H]2O[C@]3(C[C@@H](O)C[C@H](CCCCCCCCc4ccc5c(c4)OCO5)O3)C[C@@H]2O1	10.8
18.1	25.8	O=C1C=C[C@@H]2O[C@]3(C[C@@H](O)C[C@H](C[C@@H](O)CCCCCCCCc4ccc5c(c4)OCO5)O3)C[C@@H]2O1	14.9
4.2	15.6	CCCCCCCCCCCCC[C@H]1C[C@H](O)C[C@@]2(C[C@@H]3OC(=O)C=C[C@@H]3O2)O1	2.7
5.9	16.6	O=C1C[C@H](CCCCCCCCc2ccc3c(c2)OCO3)O[C@@]2(C1)C[C@@H]1OC(=O)C=C[C@@H]1O2	5.9
5.1	20.3	CCCCCCCCCCCCC[C@H](O)C[C@H]1C[C@H](O)C[C@@]2(C[C@@H]3OC(=O)C=C[C@@H]3O2)O1	3.3
4.5	13.5	CC(=O)O[C@H]1C[C@H](CCCCCCCCc2ccc3c(c2)OCO3)O[C@@]2(C1)C[C@@H]1OC(=O)C=C[C@@H]1O2	3.9
5.6	13.6	O=C1C=C[C@H](O)[C@H](CCCCCCCCc2ccc3c(c2)OCO3)O1	7.6
3.9	11.9	CCCCCCCCCCCCC[C@H]1CC(=O)C[C@@]2(C[C@@H]3OC(=O)C=C[C@@H]3O2)O1	3.1
–	0.12	COc1cccc2c1C(=O)c1c(O)c3c(c(O)c1C2=O)C[C@@](O)(C(=O)CO)C[C@@H]3O[C@H]1C[C@H](N)[C@H](O)[C@H](C)O1 [DOXORUBICIN]	0.05
